Assay results as given in patent publication US12186398B2, “Non-ionic PVP-PLA block copolymers and liquid pharmaceutical compositions derived therefrom” (ALTUS FORMULATION INC., priority 2017, dated 2025).
Where two headings read alike, the source gives them in different places.

Columns and labels:
[1] = test system: Human red blood cells (RBC); assay: In vitro haemolysis; type: cell-based; conditions: 5 mg/mL, 37° C., 60 min
Experimental: For example suspended RBCs isolated from whole human blood may be mixed with non-formulated cargo molecules or test formulations comprising the cargo molecule at a given final concentration with respect to the cargo molecule incubated at 37° C. for 60 minutes, and centrifuged to remove intact RBCs. […] Human red blood cells (RBC) were isolated by centrifugation from whole blood collected in vaccutainer containing EDTA. […] Freeze-dried formulations were reconstituted in water and then diluted to the desired concentrations with PBS.

[2] = Extrapolation to human IV 2 compartmental PK parameters; conditions: estimated human iv, PPI 1501 by rat difference ratio, solution from literature oral PK
Source text: Both sets of rodent data were then extrapolated using published human FLU PK parameters to estimate the PK of FLU post IV administration of PPI 1501 or non-formulated FLU to humans.
Assuming the plasma PK profile of FLU mediated by IV PPI 1501 in the rat is translatable to human, i.e. that the same PK parameter difference ratios for FLU in PPI 1501 observed in the rat apply in humans, then the human IV PK parameters for FLU in PPI 1501 can be estimated. This may be achieved by simple multiplication of the difference ratios provided in Table 41 (last column) to again obtain the comparative human PK parameter values FLU in PPI 1501 versus those obtained from injection of the simple solution; such data may also be compared to data obtained by injecting humans with the prodrug FA (Table 42).
The human IV PK parameters of FLU in solution were estimated based on the oral PK parameters of FLU and its estimated oral bioavailability (project 1 report, Duan, 2015, Table 42, ref 3-8).

[3] = Literature IV PK of FLU solution in rats (Park and Kim; Knihinicki et al); type: in vivo; conditions: Park and Kim data fitted to 2 compartmental model
Source text: The fitted results obtained in the JRF study were then compared to those in the literature, generated after administering a non-micellar low concentration simple FLU solution IV to rats. This was undertaken to determine potential differences in FLU pharmacokinetics induced by the micellar formulation.
The results from the JRF study were then compared to literature values for FLU PK administered as an IV solution as generated by Park and Kim (1) and Knihinicki et al (2); the comparison is shown in Table 39.
For comparative purposes, the rat PK data for a FLU solution generated by Park and Kim (1) were also fitted to the 2 compartmental model (FIG. 22 and Table 41).

[4] = FLU solution, rats, IV […], NCA, cited from earlier work
[5] = human iv FA, values from project 1 report; cited from earlier work

Compound: CC(C(=O)O)c1ccc(-c2ccccc2)c(F)c1 (stereo not drawn) [FLU, flurbiprofen]
- absorbance at 540 nm [1]: 0.54±0.03
- percent haemolysis ([1]; triplicate ± standard deviation): 92.1±17.2%
- CL [2]: 0.967 L/h
- CL2 [2]: 0.343 L/h
- MRT (est. based on 2 compartment model) [2]: 7.43 h
- V [2]: 4.984 L
- V2 [2]: 2.199 L
- t1/2Alpha ([3]; IV […]): 5.4 min
- t1/2Beta ([3]; IV […]): 2.73 h
- AUC(0-inf) ([3]; rat, plasma, IV 2.5 mg/kg): 51400 ng·h/mL
- AUC(0-t) ([3]; rat, plasma, IV 2.5 mg/kg): 45300 ng·h/mL
- C0 ([3]; rat, plasma, IV 2.5 mg/kg): 49800 ng/mL
- MRT ([3]; rat, plasma, IV 2.5 mg/kg): 3.57 h
- clearance ([3]; rat, plasma, IV 2.5 mg/kg): 0.81 mL/min/kg
- Vd ([3]; rat, plasma, IV 2.5 mg/kg, read-out: Vss): 0.174 L/kg
- Vss ([4]; Knihinicki et al): 220 mL/kg
- Vz ([4]; Knihinicki et al): 239 mL/kg
- t1/2 ([4]; Knihinicki et al): 3.07 h
- Vss ([4]; Park & Kim): 156.78 mL/kg
- Vz ([4]; Park & Kim): 192.31 mL/kg
- t1/2 ([4]; Park & Kim): 2.78 h

Compound: flurbiprofen axetil [FA]
- CL [5]: 1.14 L/h
- CL2 [5]: 4.40 L/h
- Ka [5]: 58 h⁻¹
- MRT (est. based on 2 compartment model) [5]: 7.36 h
- V [5]: 5.11 L
- V2 [5]: 3.28 L
